The subject of data set [1] is Staphylococcus aureus MRSA 43484. Description: Murine superficial MRSA skin infection model, topical treatment. Format: in vivo. To be noted: for reduction of the bacterial loads compared to vehicle treatment: topical twice daily for 3 days, day 4, Balb/C mice; for efficacy in the MRSA skin infection model: formulations at 1% and 2%, compared to vehicle. The method, then: This experiment is conducted to assess the effect of topical treatment of the compounds against MRSA. Compound S43 was evaluated for efficacy against Staphylococcus aureus MRSA 43484 in an murine skin infection model.
Treatment was performed twice daily for 3 days and sampling of skin biopsies was performed the day after last treatment. Treatment with Fucidic acid was included as a positive control and treatment with vehicle was included as a negative control.
48 Balb/C female mice—18-22 g—Taconic, Denmark, Staphylococcus aureus MRSA43484, Test compound A at 1 and 2% formulations, Test compound B at 2% formulation, Fucidin, 0.9% saline (sterile, SSI), 0.9% saline/Triton-x (sterile, SSI), Sterile water (SSI), 5% Horse Blood Agar plates (SSI), MRSA Brilliance agar plates, Nurofen® Junior (20 mg/ml, Novartis), Zoletil mix/Torbugesic (SSI/QC-BIO), Dermal curette—Miltex 335710.
Approximately 1 hour before inoculation, mice were treated orally with 45 μl nurofen (20 mg ibuprofen/ml corresponding to approximately […]) as pain relief. The mice were anaesthetized with 0.15 ml s.c. of Zoletil mix. The fur was removed from a 2×3-cm area on the back of each mouse by use of an electric shaver. Next, a razor was used to remove all the hair and hereafter the outer most layer of the skin was scraped off with a dermal curette to obtain a 1 cm^2 superficial skin lesion. 10 μl inoculum containing approximately 10^7 CFU was spread on the lesion. After the applied inoculum had dried, the mouse was placed in the cage and kept in a warming cabinet until fully awake.
Topical treatment of was initiated the day after inoculation, Day 1. Mice were treated twice daily (9 a.m and 3 p.m.) for three days. A volume of 50 μl was spread on the inoculated skin area.
Colony counts in the skin lesions were determined on day 1 (start of treatment) and day 4 (the day after completed treatment). The mice were sacrificed day 1 and 4 according to Table 1. The affected skin area was removed by a pair of scissors and tweezers, and collected in a tube for Dispomixer with 1 ml saline. The skin sample was homogenized in a Dispomixer. Each sample was serial diluted in saline/Triton-x and 20-μl spots were applied on MRSA Brillince agar plates. All agar plates were incubated 20-48 hrs at 35° C.

The next data set has as its system Cutibacterium acnes. Description: MIC and MBC determination. Format: cell-based. To be noted: Multiresistant clinical isolate. On the procedure: (§1) MBC-value defines the antibiotic activities by the lowest concentration of the compound needed to kill at least 99.9% of the bacteria, also known as minimum bactericidal concentration (MBC) value.
(§2) The MIC for each compound for each bacteria strain was determined by the serial dilution method following the CLSI guidelines (CLSI Clinical and Laboratory Standards Institute: Performance Standards for Antimicrobial Susceptibility Testing: […] M100-S25. Wayne, Pa., USA; 2015.) All compounds were diluted in autoclaved H2O and stored at 4° C. […] Bacterial inoculums were prepared by inoculating 9 ml of H2O with bacterial colonies from agar plate (Oxoid, Roskilde Denmark) supplemented with bovine blood to a final yield a final density of 10^8 colony forming unit (CFU)/mL using a Sensititre™ Nephelometer (Thermo Scientific, Roskilde, Denmark). These inoculums were each in diluted 1:100 in Müller Hinton (MH) broth (Sigma, Copenhagen, Denmark). From the diluted inoculums 100 μl was transferred to each well in a 96-well plate and mixed with the compound to be MIC determined. The plate was incubated for 24 hours at 37° C. (without shaking). The MIC value was determined as the lowest concentration in which no bacterial growth could be visually detected. All MIC determinations were done in duplicates. […] Since all derivatives are new, no control strains (with reference MIC values) were available.

Data set [2] deals with Staphylococcus epidermidis. Briefly: MIC and MBC determination. To be noted: Multiresistant clinical isolate. Format: cell-based. The method, then: as §1, §2
The subject of another data set is Campylobacter jejuni. Description: MIC and MBC determination. Particulars: Clinical isolate. Format: cell-based. On the procedure: as §1, §2
Another data set is described as follows: Mutagenicity. Particulars: data not shown. The method, then: The compound S43 was also assessed for mutagenicity.
Data set [3] in a line: Maximum Tolerated Dose (MTD) in mice. Format: in vivo. To be noted: for tolerated dose: mice, observed 4-6 hrs. On the procedure:
This experiment is conducted to assess in vivo toxicity of the compounds. […] The study was performed at Statens Serum Institute. The Maximum Tolerated Dose (MTD) was investigated after intravenous (iv), intraperitonalt (ip) and peroral (po) dosing ranging from 5 mg/kg to 100 mg/kg.

The next data set relates to S. aureus USA300. Briefly: MIC, serial dilution method (CLSI). Format: cell-based, Staphylococcus aureus. To be noted: Staphylococcus aureus, USA300, 24 h; read-out: MIC. The method, boiled down:
(§3)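 Inoculum diluted 1:100 in Müller Hinton broth was mixed with compound and incubated 24 h at 37 °C without shaking. MIC taken as lowest concentration without visible growth, determined in duplicate.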

The test system of a further data set is Escherichia coli E2. Briefly: MIC, serial dilution method (CLSI). Format: cell-based. To be noted: E. coli E2, ESBL; duplicates a/b. The method, then: as §2
A further data set deals with E. faecalis. Briefly: MIC, serial dilution method (CLSI). Format: cell-based, Enterococcus faecalis. Particulars: Enterococcus faecalis, 24 h; read-out: MIC. Summed up:
as §3

The subject of another data set is E. coli APEC O2. Briefly: MIC, serial dilution method (CLSI). Particulars: Escherichia coli, APECO2, 24 h; read-out: MIC. Format: cell-based, Escherichia coli. The method, boiled down: as §3
In a further data set the test system is Escherichia coli ESBL46. Briefly: MIC, serial dilution method (CLSI). Particulars: E. coli ESBL46, Tetracycline resistant; duplicates a/b. Format: cell-based. Summed up:
as §3

For a further data set, the system named is Escherichia coli E4. Briefly: MIC, serial dilution method (CLSI). Format: cell-based. To be noted: E. coli E4, ESBL; duplicates a/b. Summed up:
as §3

The test system of the next data set is Escherichia coli E6. Briefly: MIC, serial dilution method (CLSI). Format: cell-based. To be noted: E. coli E6, ESBL; duplicates a/b. Summed up: as §3
The next data set deals with Listeria monocytogenes. Description: MIC, serial dilution method (CLSI). Format: cell-based. To be noted: 24 h, read-out: MIC. Summed up:
as §3

Another data set concerns Streptococcus equi. Briefly: MIC, serial dilution method (CLSI). Format: cell-based. To be noted: 24 h, read-out: MIC. Summed up: as §3
A further data set concerns Salmonella enteritidis. Briefly: MIC, serial dilution method (CLSI). Format: cell-based. To be noted: Salmonella enterica, ENTERITIDIS, 24 h; read-out: MIC. Summed up:
as §3

In another data set the test system is Escherichia coli ESBL28. Briefly: MIC, serial dilution method (CLSI). Format: cell-based. To be noted: E. coli ESBL28, Tetracycline resistant; duplicates a/b. The method, boiled down: as §3
In another data set the test system is Bacillus cereus. Description: MIC, serial dilution method (CLSI). To be noted: 24 h, read-out: MIC. Format: cell-based. Summed up:
as §3

The next data set relates to Escherichia coli ESBL10. Briefly: MIC, serial dilution method (CLSI). Format: cell-based. To be noted: E. coli ESBL10, Tetracycline resistant; duplicates a/b. Summed up:
as §3

For another data set, the system named is Escherichia coli ESBL19. Briefly: MIC, serial dilution method (CLSI). Format: cell-based. Particulars: E. coli ESBL19, Tetracycline resistant; duplicates a/b. The method, boiled down: as §3
A further data set has as its system Escherichia coli ESBL37. Briefly: MIC, serial dilution method (CLSI). Format: cell-based. To be noted: E. coli ESBL37, Tetracycline resistant; duplicates a/b. The method, boiled down:
as §3

Another data set concerns Escherichia coli E38. Description: MIC, serial dilution method (CLSI). Format: cell-based. To be noted: E. coli E38, ESBL; duplicates a/b. Summed up:
as §3

Another data set relates to Escherichia coli E5. Briefly: MIC, serial dilution method (CLSI). Format: cell-based. Particulars: E. coli E5, ESBL; duplicates a/b. The method, boiled down: as §3
For a further data set, the system named is Escherichia coli ESBL1. Briefly: MIC, serial dilution method (CLSI). Particulars: E. coli ESBL1, Tetracycline resistant; duplicates a/b. Format: cell-based. Summed up:
as §3

The test system of a further data set is Escherichia coli E24. Briefly: MIC, serial dilution method (CLSI). Format: cell-based. Particulars: E. coli E24, ESBL; duplicates a/b. Summed up:
as §3

Another data set has as its system E. faecium. Briefly: MIC, serial dilution method (CLSI). Format: cell-based, Enterococcus faecium. Particulars: Enterococcus faecium, 24 h; read-out: MIC. Summed up: as §3
The next data set relates to S. aureus CC398. Briefly: MIC, serial dilution method (CLSI). Format: cell-based, Staphylococcus aureus. Particulars: Staphylococcus aureus, MRSA, 24 h; read-out: MIC. The method, boiled down: as §3
Data set [4] relates to Staphylococus pseudintermedius. Description: MIC, serial dilution method (CLSI). Format: cell-based, Staphylococcus pseudintermedius. Particulars: Staphylococcus pseudintermedius, 24 h; read-out: MIC. Summed up: as §3

For `CC(C)=CCCC(C)CC[N+](C)(C)CCCN1c2ccccc2Sc2ccccc21.Cc1ccc(S(=O)(=O)[O-])cc1` (stereo not shown) [Compound S43, N-(3-(10H-phenothiazin-10-yl)propyl)-N,N,3,7-tetramethyloct-6-en-1-aminium 4-methylbenzenesulfonate], the “reduction of the bacterial loads compared to vehicle treatment” value in data set [1] (1% formulation) was found to be 3.0 log10 CFU; in data set [1] (2% formulation), 3.7 log10 CFU. In addition, the “efficacy in the MRSA skin infection model” value is on record as “significant reduction of the bacterial loads” in [1] (4-methylbenzenesulfonate) and “highly effective” in [1] (listed as 43, 4-methylbenzenesulfonate). Besides, the MBC with Cutibacterium acnes was determined as 1 µg/mL; in data set [2], 2 µg/mL; against Campylobacter jejuni, 1 µg/mL. The MIC in the data set on Cutibacterium acnes was determined as 1 µg/mL; in data set [2], 2 µg/mL; with Campylobacter jejuni it was 1 µg/mL; in the data set with S. aureus USA300 it was 2 µg/mL. The mutagenic potential result in the data set “Mutagenicity” is listed as “did not show indications of mutagenic potential”. Moreover, the tolerability result in data set [3] (mice dosed twice po with 100 mg/kg) is “no signs of discomfort”. Moreover, the tolerated dose entry in data set [3] (ip dosing) and in data set [3] (iv dosing) was “up to 10 mg/kg” throughout.

Take `CCCCCCCCCCCC[N+](C)(C)CCCN1c2ccccc2Sc2ccc(Cl)cc21.[Br-]` [Compound S7, N-(3-(2-chloro-10H-phenothiazin-10-yl)propyl)-N,N-dimethyldodecan-1-aminium bromide]: the MIC with Escherichia coli E2 was 8/4; in the data set with E. faecalis, 0.5 µg/mL; in the data set on E. coli APEC O2, 4 µg/mL; against Escherichia coli ESBL46 it was 4/8; against Escherichia coli E4 it was 4/4; with Escherichia coli E6, 4/4. Besides, the MIC in the data set with Listeria monocytogenes is 0.25 µg/mL; in the data set with Streptococcus equi it was 1 µg/mL; in the data set on Salmonella enteritidis it was 16 µg/mL; with Escherichia coli ESBL28 it was 4/4; in the data set with Bacillus cereus, 0.25 µg/mL; against Escherichia coli ESBL10 it was 8/8. The MIC with Escherichia coli ESBL19, in the data set on Escherichia coli ESBL37, with Escherichia coli E38, against Escherichia coli E5, in the data set on Escherichia coli ESBL1 and with Escherichia coli E24 was 4/4 throughout. The MIC in the data set on E. faecium is 0.25 µg/mL; in the data set with S. aureus USA300, 0.5 µg/mL; in the data set with S. aureus CC398 it was 0.25 µg/mL; in [4], 0.25 µg/mL.

These data come from patent US20220313656A1, “NEW CLASS OF ANTIBIOTICS HAVING LOW MIC-VALUES TOWARDS DIFFERENT STRAINS OF BACTERIA” (priority 2019, published 2022).
